Assay results taken from patent US20240424132A1, “ATHEROSCLEROSIS-TARGETED LIPOSOME NANOCARRIER DELIVERY SYSTEM AND PREPARATION METHOD THEREFOR” (Beijing Inno Medicine Co., Ltd., priority 2021, published 2024).

Tested on: arterial plaques
Test: In vivo therapeutic effect on arterial plaques (carotid MRI, percentage of plaque volume progression)
Parameters: species or system ApoE−/− mice
Conditions: 0.66 mg rosuvastatin per kg, once every other day, 4 weeks
Experimental: (1) A normal saline solution of free rosuvastatin was prepared, and a nanodelivery system loaded with the therapeutic agent was prepared by the method described in the above Example 2. SPF-grade ApoE−/− mice (42 mice, 5-6 weeks old, weight 20±1 g) were taken as assay animals. The mice were fed an adaptive high-fat diet (fat 10% (w/w), cholesterol 2% (w/w), sodium cholate 0.5% (w/w), and the rest being normal feed for mice) for 4 weeks, and then anaesthetized via intraperitoneal injection of 1% sodium pentobarbital (prepared by adding […] of sodium pentobarbital to 100 ml of normal saline) at a dose of 40 mg/kg. Then, the mice were fixed on the surgical plate in the supine position, and disinfected around the neck with 75% (v/v) alcohol. The neck skin was cut longitudinally, and the anterior cervical gland was bluntly separated, and the beating left common carotid artery can be observed on the left side of the trachea. The common carotid artery was carefully separated to the bifurcation. A silicone cannula with a length of 2.5 mm and an inner size of 0.3 mm was placed on the outer periphery of the left common carotid artery. […] For animals in each group, carotid MRI scans were performed before and after treatment weekly to detect plaque and lumen area, and the percentage of plaque volume progression was calculated based on the scanned thickness. […]

Structure (SMILES): CC(C)c1nc(N(C)S(C)(=O)=O)nc(-c2ccc(F)cc2)c1/C=C/[C@@H](O)C[C@@H](O)CC(=O)O [free rosuvastatin, rosuvastatin]
- therapeutic effect on plaques, intravenous administration (intravenous): cannot exhibit the therapeutic effect of reversing plaques
- therapeutic effect on plaques, oral administration (oral): cannot exhibit the therapeutic effect of reversing plaques
